Values quoted from earlier work as cited in patent publication US9557341B2, “Risk assessment for cutaneous adverse drug reactions from antiretroviral agent” (priority 2008, dated 2017).
Like-named read-outs stand apart in the source and are kept apart here.

Settings: cited from earlier work; for hypersensitivity reaction incidence: mix French population

SMILES | rate of drug rash (human, in vivo) [%] | rate of hepatitis (human, in vivo) [%] | odds ratios, hypersensitivity and HLA-B*5701 (Caucasians) | rate of unwarranted interruptions of therapy (after HLA-B*5701 screening) [%] | rate of unwarranted interruptions of therapy (before HLA-B*5701 screening) [%] | negative predictive value of HLA-B*5701 for hypersensitivity (every ethnic studies) | hypersensitivity syndrome, cases (human, in vivo) | hypersensitivity reaction incidence (after HLA-B*5701 screening) [%] | hypersensitivity reaction incidence (before HLA-B*5701 screening) [%]
O=C1Nc2ccc(Cl)cc2[C@@](C#CC2CC2)(C(F)(F)F)O1 [EFV, efavirenz] | 11 | 9 | – | – | – | – | – | – | –
Nc1nc(NC2CC2)c2ncn([C@H]3C=C[C@@H](CO)C3)c2n1 [abacavir] | – | – | 117 | 0.73 | 10.2 | more than 90% | about 5% | 0 | 12
